Reference: patent US7927821B2, “Methods of screening for compounds which bind G protein-coupled receptors” (Takeda Pharmaceutical Company Limited, priority 2004, dated 2011)

How the values were obtained:
TGR25 = TGR25 (Homo sapiens, UniProt Q86Y34); test: SRE-luciferase reporter assay in HeLa cells transiently expressing TGR25; type: cell-based; conditions: for luciferase activity in the TGR25-expressed cells (in words): 20 μM
[1] = tested on: pAKKO-111H-transfected cells (control); test: SRE-luciferase reporter assay in pAKKO-111H-transfected HeLa cells for control (no receptor); conditions: 2 μM
HL-60 = test: Differentiation of HL-60 cell line into neutrophil-like cells (CD11b/Mac-1, flow cytometry); type: cell-based, human; conditions: co-presence of 1.25% DMSO and AM251 (10 μM), 4 days
Excerpt: Human leukocyte cell line (human acute promyelocytic leukemia cell-derived) HL-60 is known to differentiate into neutrophil-like cells by treatment with DMSO (dimethyl sulfoxide) (Blood, 70, 1233-1244 (1987)). Gene expression analysis based on EXAMPLE 3 confirmed the expression of the TGR25 in the cell line. Accordingly, the action of AM251 as an agonist of the TGR25 for differentiation of the cells was examined.
After HL-60 cells in the growth phase were suspended in 10% fetal calf serum-containing RPMI 1640 medium, the cells were plated on a 12-well tissue culture plate (Becton Dickinson Japan) in 5×10^4 cells/well. […] Degree of cell differentiation was analyzed using a fluorescence-labeled antibody (PE-anti-human CD11b/Mac-1, Becton Dickinson Japan) on a flow cytometry (BD FACSVantage™, Becton Dickinson Japan), in terms of the expression level of a differentiation marker or cell surface antigen CD11b/Mac-1 as an indicator.

Chain of TGR25 (Q86Y34 21-549): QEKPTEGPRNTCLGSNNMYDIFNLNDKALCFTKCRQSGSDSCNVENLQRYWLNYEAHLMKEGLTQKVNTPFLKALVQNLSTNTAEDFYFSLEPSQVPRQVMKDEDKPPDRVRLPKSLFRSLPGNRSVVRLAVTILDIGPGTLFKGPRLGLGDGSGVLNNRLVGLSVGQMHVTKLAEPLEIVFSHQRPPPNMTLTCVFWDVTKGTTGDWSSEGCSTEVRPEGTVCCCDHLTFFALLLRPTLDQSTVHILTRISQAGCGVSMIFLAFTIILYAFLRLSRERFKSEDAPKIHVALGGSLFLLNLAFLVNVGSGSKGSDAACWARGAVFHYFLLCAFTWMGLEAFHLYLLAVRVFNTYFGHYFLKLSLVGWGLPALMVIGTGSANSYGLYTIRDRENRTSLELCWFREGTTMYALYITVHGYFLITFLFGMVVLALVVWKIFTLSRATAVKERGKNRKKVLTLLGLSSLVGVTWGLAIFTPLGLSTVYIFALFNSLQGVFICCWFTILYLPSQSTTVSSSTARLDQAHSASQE

SMILES | luciferase activity in the TGR25 expression cells (in words) (TGR25; 2 μM) | Increased luciferase activity (cps) in the TGR25 expression cells by AM251: TGR25 (TGR25; AM251 2 μM, 4 hours, HeLa cells, 0 μM gave 7527) [cps] | luciferase activity in the pAKKO-111H-transfected cells for control (in words) [1] | differentiation of HL-60 into neutrophil-like cells (HL-60) | expression level of CD11b/Mac-1 (differentiation marker) (HL-60; versus DMSO alone) | luciferase activity in the TGR25-expressed cells (in words) (TGR25) | Increase of Luciferase Activity in TGR25-Expressed Cells by AM281 (cps): TGR25 (TGR25; AM281 20 μM, 4 hours, HeLa cells, 0 μM gave 6113) [cps] | Increase of Luciferase Activity in TGR25-Expressed Cells by DH97 (cps): TGR25 (TGR25; DH97 20 μM, 4 hours, HeLa cells, 0 μM gave 2642) [cps]
Cc1c(C(=O)NN2CCCCC2)nn(-c2ccc(Cl)cc2Cl)c1-c1ccc(I)cc1 [AM251, 1-(2,4-dichlorophenyl)-5-(4-iodophenyl)-4-methyl-N-piperidin-1-yl-1H-pyrazole-3-carboxamide] | increased luciferase activity was detected | 17897 | any significant increase in the activity was not detected | acts promotively | further increased | – | – | –
Cc1c(C(=O)NN2CCOCC2)nn(-c2ccc(Cl)cc2Cl)c1-c1ccc(I)cc1 [AM281, 1-(2,4-dichlorophenyl)-5-(4-iodophenyl)-4-methyl-N-morpholin-4-yl-1H-pyrazole-3-carboxamide] | – | – | – | – | – | the luciferase activity increased | 9279 | –
CCCCC(=O)NCCc1c(Cc2ccccc2)[nH]c2ccccc12 [DH97, N-[2-(2-benzyl-1H-indol-3-yl)ethyl]pentanamide] | – | – | – | – | – | the luciferase activity increased | – | 5674
